Marks after values point to notes of the source that are not given here.
Tested on: acetic acid-induced colitis in male Wistar rats
Assay: Acetic acid-induced ulcerative colitis
Format: in vivo
Description: Male Wistar rats were divided into 9 experimental groups, each of 6 animals. Rats of groups 1 and 2 received the vehicle (5 mL/kg) and served as normal control and control colitis groups, and Group 3 was administered dexamethasone (0.1 mg/kg) and served as Reference Drug group. […] All medications were administered orally, once daily for 5 consecutive days after colitis induction. The first doses were administrated in all groups one hour after colitis induction. The colonic lesions were assessed by weighing the colon specimens and the wet weight/length ratio was calculated for all the rats. The specimens were examined under a dissecting microscope and the lesion scores were quantified by scoring system (0-5). Ulcer area was measured using a plane glass square. Each cell on the glass square was 1 mm^2 in area, and the number of cells was counted and the ulcer area was determined for each colon.
The Ulcer index (UI) was measured by summing the lesion score and the ulcer area for each colon specimen. The curative ratio was determined according to formula (1) below: […]
The inflammatory changes of the intestinal tract were associated with a significant increase of wet weight/length of the colon specimens as an indicator of inflammation. […] The colitis was induced by slowly infusion of 2 mL (4%, v/v) acetic acid in saline into the colon through the catheter.

[1] = 50 mg/kg orally once daily for 5 days after colitis induction, n=6

SMILES: C[C@]12C=CC(=O)C=C1CC[C@@H]1[C@@H]2[C@@H](O)C[C@@]2(C)[C@H]1CC[C@]2(O)C(=O)CO [Prednisolone]
- percent protection of control colitis (50 mg/kg orally for 5 days): 54.9%
- Lesion score (0-5) [1]: 2.22 ± 0.12
- Ulcer area [1]: 2.53 ± 0.15* cm^2
- Ulcer index [1]: 4.65 ± 0.27
- Wet W/L (colon wet weight/length, 50 mg/kg orally once daily for 5 days after colitis induction, n=6): 0.46 ± 0.02 g/cm

Reference: patent publication US9533019B1, “Calotropis procera extracts as anti-ulcerative colitis agents” (KING SAUD UNIVERSITY, priority 2016, dated 2017)
